Assay results published in US20240239775A1, “FXR REGULATOR, PREPARATION METHOD THEREFOR, PHARMACEUTICAL COMPOSITION THEREOF AND USE THEREOF” (QINGDAO RUIJI MEDICAL TECHNOLOGY CO., LTD., priority 2021, published 2024).

target: T1, FXR (Homo sapiens, UniProt Q96RI1); experiment: FXR antagonist screening by TR-FRET (LanthaScreen TR-FRET FXR co-activation assay kit); type: biochemical; conditions: Table 1.1, FXR antagonistic activity; TR-FRET with CDCA; geometric means of at least two independent runs
T1 construct: 5 μL of 20 nM FXR-LBD Complete Coregulator buffer G; purchased ThermoFisher PV4833
T1 sequence (Q96RI1 262-486 limits assumed): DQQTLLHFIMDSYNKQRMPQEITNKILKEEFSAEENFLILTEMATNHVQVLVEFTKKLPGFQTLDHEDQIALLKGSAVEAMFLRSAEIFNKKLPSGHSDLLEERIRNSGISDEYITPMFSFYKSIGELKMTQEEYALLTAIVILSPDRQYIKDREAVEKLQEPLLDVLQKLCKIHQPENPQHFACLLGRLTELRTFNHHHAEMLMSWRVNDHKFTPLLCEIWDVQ
How it was run: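 FXR-LBD (20 nM working solution) mixed with compound, CDCA (200 μM working solution) as agonist, Fluorescein-SRC2-2 and Tb-anti-GST antibody in Coregulator buffer G; 10 h at room temperature. Coactivator recruitment read by TR-FRET, triplicate wells.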

Structure (SMILES) | IC50 [µM]
CCOC(=O)c1oc2ccc(S(=O)(=O)N(CCc3ccccc3)Cc3ccc(C(F)(F)F)cc3C(F)(F)F)cc2c1C [Example M4-58, ethyl 3-methyl-5-(N-(2,4-bis(trifluoromethyl)benzyl)-N-phenethylsulfamoyl)benzofuran-2-carboxylate] | 50 to 100
CCOC(=O)c1oc2ccc(S(=O)(=O)N(CCc3ccccc3)Cc3ccc(Br)cc3C(F)(F)F)cc2c1C [Example M4-59, ethyl 3-methyl-5-(N-(2-trifluoromethyl-4-bromobenzyl)-N-phenethylsulfamoyl)benzofuran-2-carboxylate] | 50 to 100
CCOC(=O)c1oc2ccc(S(=O)(=O)N(CCc3ccccc3)Cc3ccc(Cl)cc3Cl)cc2c1C [Example M4-60, ethyl 3-methyl-5-(N-(2,4-dichlorobenzyl)-N-phenethylsulfamoyl)benzofuran-2-carboxylate] | 50 to 100
CCOC(=O)c1oc2ccc(S(=O)(=O)N(CCc3ccccc3)Cc3cc(F)ccc3C)cc2c1C [Example M4-61, ethyl 3-methyl-5-(N-(2-methyl-5-fluorobenzyl)-N-phenethylsulfamoyl)benzofuran-2-carboxylate] | 50 to 100
CCOC(=O)c1oc2ccc(S(=O)(=O)N(CCc3ccccc3)Cc3c(F)cc(Cl)cc3F)cc2c1C [Example M4-62, ethyl 3-methyl-5-(N-(2,6-difluoro-4-chlorobenzyl)-N-phenethylsulfamoyl)benzofuran-2-carboxylate] | 50 to 100
CCOC(=O)c1oc2ccc(S(=O)(=O)N(CCc3ccccc3)Cc3ccc(-c4ccccc4)cc3)cc2c1C [Example M4-82] | 50 to 100
CCOC(=O)c1oc2ccc(S(=O)(=O)N(CCc3ccccc3)Cc3ccc(-c4ccccc4C#N)cc3)cc2c1C [Example M4-83, ethyl 3-methyl-5-(N-((2′-cyano-[1,1′-biphenyl]-4-yl)methyl)-N-phenethylsulfamoyl)benzofuran-2-carboxylate] | 50 to 100
CCOC(=O)c1oc2ccc(S(=O)(=O)N(CCc3ccccc3)Cc3ccc(-c4ccccc4C(=O)OC(C)(C)C)cc3)cc2c1C [Example M4-84, ethyl 3-methyl-5-(N-((2′-(tert-butoxycarbonyl)-[1,1′-biphenyl]-4-yl)methyl)-N-phenethylsulfamoyl)benzofuran-2-carboxylate] | 50 to 100
CCOC(=O)c1oc2ccc(S(=O)(=O)N(CCc3ccccc3)Cc3ccc(C(=O)c4ccccc4)cc3)cc2c1C [Example M4-85, ethyl 3-methyl-5-(N-(4-benzoylbenzyl)-N-phenethylsulfamoyl)benzofuran-2-carboxylate] | 50 to 100
CCOC(=O)c1oc2ccc(S(=O)(=O)N(CCc3ccccc3)c3ccccc3)cc2c1C [Example M8-10] | 50 to 100
CCOC(=O)c1oc2ccc(S(=O)(=O)N(CCc3ccccc3)c3ccc(Cc4ccccc4)cc3)cc2c1C [Example M8-11, ethyl 3-methyl-5-(N-(4-benzylphenyl)-N-phenethylsulfamoyl)benzofuran-2-carboxylate] | 50 to 100
CCOC(=O)c1oc2ccc(S(=O)(=O)N(CCc3ccccc3)c3ccc(Oc4ccccc4)cc3)cc2c1C [Example M8-12, ethyl 3-methyl-5-(N-(4-phenoxyphenyl)-N-phenethylsulfamoyl)benzofuran-2-carboxylate] | 50 to 100
CCOC(=O)c1oc2ccc(S(=O)(=O)N(CCc3ccccc3)CCc3ccccc3)cc2c1C [Example M8-13, ethyl 3-methyl-5-(N,N-diphenylethylsulfamoyl)benzofuran-2-carboxylate] | 50 to 100
CCOC(=O)c1oc2ccc(S(=O)(=O)N(CCc3ccccc3)c3ccc(N4CCOCC4)cc3)cc2c1C [Example M8-63, ethyl 3-methyl-5-(N-(4-morpholinophenyl)-N-phenethylsulfamoyl)benzofuran-2-carboxylate] | 50 to 100
CCOC(=O)c1oc2ccc(S(=O)(=O)N(CCc3ccccc3)c3ccc(N4CCN(C)CC4)cc3)cc2c1C [Example M8-64, ethyl 3-methyl-5-(N-(4-(4-methylpiperazin-1-yl)phenyl)-N-phenethylsulfamoyl)benzofuran-2-carboxylate] | 50 to 100
CCOC(=O)c1oc2ccc(S(=O)(=O)N(CCc3ccccc3)c3ccc(N4CCN(C(=O)OC(C)(C)C)CC4)cc3)cc2c1C [Example M8-65, ethyl 3-methyl-5-(N-(4-(4-(tert-butoxycarbonyl)piperazin-1-yl)phenyl)-N-phenethylsulfamoyl)benzofuran-2-carboxylate] | 50 to 100
CCOC(=O)c1oc2ccc(S(=O)(=O)N(CCc3ccccc3)c3ccc(N4CCN(C(=O)CC(C)(C)C)CC4)cc3)cc2c1C [Example M8-66, ethyl 3-methyl-5-(N-(4-(4-(3,3-dimethylbutyryl)piperazin-1-yl)phenyl)-N-phenethylsulfamoyl)benzofuran-2-carboxylate] | 50 to 100
CCCOC(=O)N1CCN(c2ccc(N(CCc3ccccc3)S(=O)(=O)c3ccc4oc(C(=O)OCC)c(C)c4c3)cc2)CC1 [Example M8-67, ethyl 3-methyl-5-(N-(4-(4-(propoxycarbonyl)piperazin-1-yl)phenyl)-N-phenethylsulfamoyl)benzo furan-2-carboxylate] | 50 to 100
CCOC(=O)c1oc2ccc(S(=O)(=O)N(CCc3ccccc3)c3ccc(N4CCN(C(C)=O)CC4)cc3)cc2c1C [Example M8-68, ethyl 3-methyl-5-(N-(4-(4-acetylpiperazin-1-yl)phenyl)-N-phenethylsulfamoyl)benzofuran-2-carboxylate] | 50 to 100
CCOC(=O)c1oc2ccc(S(=O)(=O)N(CCc3ccccc3)c3ccc(N4CCN(C(=O)c5ccccc5)CC4)cc3)cc2c1C [Example M8-69, ethyl 3-methyl-5-(N-(4-(4-benzoylpiperazin-1-yl)phenyl)-N-phenethylsulfamoyl)-3-methylbenzofuran-2-carboxylate] | 50 to 100
CCOC(=O)c1oc2ccc(S(=O)(=O)N(CCc3ccccc3)c3ccc(N4CCN(Cc5ccccc5)CC4)cc3)cc2c1C [Example M8-70, ethyl 3-methyl-5-(N-(4-(4-benzylpiperazin-1-yl)phenyl)-N-phenethylsulfamoyl)benzofuran-2-carboxylate] | 50 to 100
CCOC(=O)c1oc2ccc(S(=O)(=O)N(CCc3ccccc3)c3ccc(N4CCN(C(=O)N(C)C)CC4)cc3)cc2c1C [Example M8-71, ethyl 3-methyl-5-(N-(4-(4-(dimethylcarbamoyl)piperazin-1-yl)phenyl)-N-phenethylsulfamoyl)benzofuran-2-carboxylate] | 50 to 100
CCOC(=O)c1oc2ccc(S(=O)(=O)N(CCc3ccccc3)c3ccc(N4CCN(S(C)(=O)=O)CC4)cc3)cc2c1C [Example M8-72, ethyl 3-methyl-5-(N-(4-(4-(methylsulfonyl)piperazin-1-yl)phenyl)-N-phenethylsulfamoyl)benzofuran-2-carboxylate] | 50 to 100
CCOC(=O)c1oc2ccc(S(=O)(=O)N(CCc3ccccc3)c3ccc(N4CCN(C(=O)OC(C)(C)C)CC4)c(C(F)(F)F)c3)cc2c1C [Example M8-74, ethyl 3-methyl-5-(N-(4-(4-(tert-butoxycarbonyl)piperazin-1-yl)-3-(trifluoromethyl)phenyl)-N-phenethylsulfamoyl)benzofuran-2-carboxylate] | 50 to 100
